Experimental data: BigSolDB 2.1

CNC(=O)c1cc(Oc2ccc(NC(=O)Nc3ccc(Cl)c(C(F)(F)F)c3)cc2)ccn1.Cc1ccc(S(=O)(=O)O)cc1
solubility (mole fraction)
Settings	283.15 K	293.15 K	303.15 K	313.15 K	323.15 K	333.15 K
in isobutanol	6.18e-05	9.67e-05	0.000149	0.000216	0.000284	0.000423
in isopropanol	7.81e-05	0.000109	0.00016	0.000229	0.000311	0.000442
in n-butanol	0.000132	0.000163	0.000238	0.000316	0.000419	0.000541
in n-pentanol	5.78e-05	8.76e-05	0.000148	0.000209	0.000272	0.000394
in n-propanol	0.000139	0.000175	0.000258	0.000344	0.000456	0.000622

CNC(=O)c1cc(Oc2ccc(NC(=O)Nc3ccc(Cl)c(C(F)(F)F)c3)cc2)ccn1
solubility (mole fraction)
Settings	283.15 K	293.15 K	303.15 K	313.15 K	323.15 K	333.15 K
in isobutanol	0.000253	0.000379	0.000715	0.00104	0.00155	0.00216
in isopropanol	0.000509	0.000638	0.00104	0.00152	0.00226	0.00325
in n-butanol	0.000645	0.000816	0.0013	0.00193	0.00288	0.00417
in n-pentanol	0.000599	0.000819	0.00122	0.00173	0.00256	0.00377
in n-propanol	0.000678	0.000888	0.00137	0.00204	0.00313	0.00456
